Laboratory results taken from ChEMBL document CHEMBL4229520, “Design and synthesis of C10 modified and ring-truncated canthin-6-one analogues as effective membrane-active antibacterial agents” (Bioorg Med Chem Lett, 2018).
≈ marks a conversion by molar mass, not a printed value. Calls of active or inactive are those of the source. No cut-off for these calls is given here.

Key:
Staphylococcus aureus [1] = assay: Antibacterial activity against Staphylococcus aureus after 12 to 14 hrs; type: functional
Staphylococcus aureus [2] = assay: Antibacterial activity against methicillin-resistant Staphylococcus aureus after 12 to 14 hrs; type: functional
Bacillus cereus = assay: Antibacterial activity against Bacillus cereus after 12 to 14 hrs; type: functional
Bacillus subtilis = assay: Antibacterial activity against Bacillus subtilis after 12 to 14 hrs; type: functional
Ralstonia solanacearum [3] = assay: Antibacterial activity against Ralstonia solanacearum after 12 to 14 hrs; type: functional
Staphylococcus aureus [4] = assay: Potency index, ratio of fosfomycin sodium MIC to test compound MIC for methicillin-resistant Staphylococcus aureus; type: functional
Staphylococcus aureus [5] = assay: Potency index, ratio of cefotaxime sodium MIC to test compound MIC for methicillin-resistant Staphylococcus aureus; type: functional
[6] = Cytotoxicity against human HeLa cells assessed as cell viability at 4 ug/ml after 48 hrs by MTT assay relative to control; type: cell-based; conditions: read-out: Activity
[7] = Cytotoxicity against human SGC7901 cells assessed as cell viability at 4 ug/ml after 48 hrs by MTT assay relative to control; type: cell-based, SGC-7901; conditions: read-out: Activity
[8] = Cytotoxicity against human A549 cells assessed as cell viability at 4 ug/ml after 48 hrs by MTT assay relative to control; type: cell-based; conditions: read-out: Activity
[9] = Cytotoxicity against human L02 cells assessed as cell viability at 4 ug/ml after 48 hrs by MTT assay relative to control; type: cell-based; conditions: read-out: Activity
HeLa = assay: Cytotoxicity against human HeLa cells assessed as decrease in cell viability after 48 hrs by MTT assay; type: cell-based
SGC-7901 = assay: Cytotoxicity against human SGC7901 cells assessed as decrease in cell viability after 48 hrs by MTT assay; type: cell-based; conditions: SGC-7901, 48 h
A549 = assay: Cytotoxicity against human A549 cells assessed as decrease in cell viability after 48 hrs by MTT assay; type: cell-based; conditions: A549, 48 h
L02 = assay: Cytotoxicity against human L02 cells assessed as decrease in cell viability after 48 hrs by MTT assay; type: cell-based; conditions: L02, 48 h
[10] = Selectivity index, ratio of IC50 for human HeLa cells to MIC for Bacillus cereus; type: toxicity; conditions: read-out: Selectivity Index
[11] = Selectivity index, ratio of IC50 for human HeLa cells to MIC for Ralstonia solanacearum; type: toxicity; conditions: read-out: Selectivity Index
[12] = Selectivity index, ratio of IC50 for human SGC7901 cells to MIC for Bacillus cereus; type: toxicity; conditions: read-out: Selectivity Index
[13] = Selectivity index, ratio of IC50 for human SGC7901 cells to MIC for Ralstonia solanacearum; type: toxicity; conditions: read-out: Selectivity Index
[14] = Selectivity index, ratio of IC50 for human A549 cells to MIC for Bacillus cereus; type: toxicity; conditions: read-out: Selectivity Index
[15] = Selectivity index, ratio of IC50 for human A549 cells to MIC for Ralstonia solanacearum; type: toxicity; conditions: read-out: Selectivity Index
[16] = Selectivity index, ratio of IC50 for human L02 cells to MIC for Bacillus cereus; type: toxicity; conditions: read-out: Selectivity Index
[17] = Selectivity index, ratio of IC50 for human L02 cells to MIC for Ralstonia solanacearum; type: toxicity; conditions: read-out: Selectivity Index
Radish = assay: Allelopathic activity against Raphanus sativus assessed as germination rate at 4 ug/ml after 48 hrs (reference value: 92 +/- 0.47%); type: organism-based; conditions: in vivo
Triticum aestivum = assay: Allelopathic activity against Triticum aestivum assessed as germination rate at 4 ug/ml after 48 hrs (reference value: 91 +/- 0.42%); type: organism-based; conditions: in vivo
Staphylococcus aureus [18] = assay: Induction of membrane damage in Staphylococcus aureus at 1 ug/ml after 1 hr by Hoechst/propidium iodide staining-based fluorescence microscopic method; type: functional, organism-based
Staphylococcus aureus [19] = assay: Induction of morphological changes in Staphylococcus aureus assessed as cell shrinkage at 1 ug/ml after 1 hr by SEM analysis; type: functional, organism-based
Staphylococcus aureus [20] = assay: Induction of membrane permeabilization in Staphylococcus aureus at MIC by beta-galactosidase leakage assay; type: functional, organism-based
Ralstonia solanacearum [21] = assay: Protection against Ralstonia solanacearum-induced infection in eggplant leaf at 4 ug/ml after 3 days relative to control; type: functional
Ralstonia solanacearum [22] = assay: Potency index, ratio of propineb MIC to test compound MIC for Ralstonia solanacearum; type: functional

## O=C1C=CC(=O)n2c1cc1ccccc12
Staphylococcus aureus [1]
  MIC: 2 µg/mL (≈ 10.1 µM)
Staphylococcus aureus [2]
  MIC: 2 µg/mL (≈ 10.1 µM)
Bacillus cereus
  MIC: 4 µg/mL (≈ 20.3 µM)
Bacillus subtilis
  MIC: 2 µg/mL (≈ 10.1 µM)
Ralstonia solanacearum [3]
  MIC: 4 µg/mL (≈ 20.3 µM)
Staphylococcus aureus [4]
  Ratio: 4
Staphylococcus aureus [5]
  Ratio: 8
[6]
  viability at 48 h, 4 ug/ml: 91%
[7]
  viability at 48 h, 4 ug/ml: 96%
[8]
  viability at 48 h, 4 ug/ml: 103%
[9]
  viability at 48 h, 4 ug/ml: 89%
HeLa
  IC50: 82.4 µM
SGC-7901
  IC50: 88.6 µM
A549
  IC50: 97.1 µM
L02
  IC50: 79.5 µM
[10]
  selectivity ratio: 4.1
[11]
  selectivity ratio: 4.4
[12]
  selectivity ratio: 4.9
[13]
  selectivity ratio: 4
[14]
  selectivity ratio: 4.1
[15]
  selectivity ratio: 4.4
[16]
  selectivity ratio: 4.9
[17]
  selectivity ratio: 4
Radish
  Activity: 100%
Triticum aestivum
  Activity: 97%
Staphylococcus aureus [18]
  Activity: Active
Staphylococcus aureus [19]
  Activity: Active
Staphylococcus aureus [20]
  Activity: Active
Ralstonia solanacearum [21]
  Efficacy: 68%

## O=C1CCC(=O)n2c1cc1ccccc12
Staphylococcus aureus [1]
  MIC: 8 µg/mL (≈ 40.2 µM)
Staphylococcus aureus [2]
  MIC: 4 µg/mL (≈ 20.1 µM)
Bacillus cereus
  MIC: 16 µg/mL (≈ 80.3 µM)
Bacillus subtilis
  MIC: 4 µg/mL (≈ 20.1 µM)
Ralstonia solanacearum [3]
  MIC: 8 µg/mL (≈ 40.2 µM)

## O=c1ccc2nccc3c4cc(O)ccc4n1c23
Staphylococcus aureus [1]
  MIC: > 64 µg/mL
Bacillus cereus
  MIC: 16 µg/mL (≈ 67.7 µM)
Bacillus subtilis
  MIC: > 64 µg/mL
Ralstonia solanacearum [3]
  MIC: > 64 µg/mL

## COc1ccc2[nH]c3c(C(OC)OC)nccc3c2c1
Staphylococcus aureus [1]
  MIC: > 64 µg/mL
Bacillus cereus
  MIC: > 64 µg/mL
Bacillus subtilis
  MIC: > 64 µg/mL
Ralstonia solanacearum [3]
  MIC: > 64 µg/mL

## O=C1CCC(O)c2cc3ccccc3n21 (centres undefined)
Staphylococcus aureus [1]
  MIC: 8 µg/mL (≈ 39.8 µM)
Staphylococcus aureus [2]
  MIC: 32 µg/mL (≈ 159 µM)
Bacillus cereus
  MIC: 16 µg/mL (≈ 79.5 µM)
Bacillus subtilis
  MIC: 16 µg/mL (≈ 79.5 µM)
Ralstonia solanacearum [3]
  MIC: 32 µg/mL (≈ 159 µM)

## CCc1cc2nccc3c4cc(OC)ccc4n(c1=O)c23
Staphylococcus aureus [1]
  MIC: > 64 µg/mL
Bacillus cereus
  MIC: > 64 µg/mL
Bacillus subtilis
  MIC: > 64 µg/mL
Ralstonia solanacearum [3]
  MIC: > 64 µg/mL

## c1ccc2c(c1)[nH]c1cnccc12 [NORHARMANE]
Staphylococcus aureus [1]
  MIC: > 64 µg/mL
Staphylococcus aureus [2]
  MIC: > 64 µg/mL
Bacillus cereus
  MIC: > 64 µg/mL
Bacillus subtilis
  MIC: > 64 µg/mL
Ralstonia solanacearum [3]
  MIC: > 64 µg/mL

## COc1ccc2c(c1)c1c3n2C(=O)CCC3N(Cc2ccccc2)CC1 (centres undefined)
Staphylococcus aureus [1]
  MIC: 64 µg/mL (≈ 185 µM)
Staphylococcus aureus [2]
  MIC: 64 µg/mL (≈ 185 µM)
Bacillus cereus
  MIC: > 64 µg/mL
Bacillus subtilis
  MIC: > 64 µg/mL
Ralstonia solanacearum [3]
  MIC: > 64 µg/mL

## COc1ccc2c(c1)c1ccnc3ccc(=O)n2c31
Staphylococcus aureus [1]
  MIC: > 64 µg/mL
Staphylococcus aureus [2]
  MIC: 64 µg/mL (≈ 256 µM)
Bacillus cereus
  MIC: 4 µg/mL (≈ 16 µM)
Bacillus subtilis
  MIC: 8 µg/mL (≈ 32 µM)
Ralstonia solanacearum [3]
  MIC: 16 µg/mL (≈ 63.9 µM)

## COc1ccc2c(c1)c1cc[n+]([O-])c3ccc(=O)n2c13
Staphylococcus aureus [1]
  MIC: > 64 µg/mL
Bacillus cereus
  MIC: > 64 µg/mL
Bacillus subtilis
  MIC: > 64 µg/mL
Ralstonia solanacearum [3]
  MIC: > 64 µg/mL

## COc1ccc2c(c1)c1ccnc3c1n2CCC3
Staphylococcus aureus [1]
  MIC: > 64 µg/mL
Staphylococcus aureus [2]
  MIC: 32 µg/mL (≈ 134 µM)
Bacillus cereus
  MIC: 32 µg/mL (≈ 134 µM)
Bacillus subtilis
  MIC: > 64 µg/mL
Ralstonia solanacearum [3]
  MIC: 4 µg/mL (≈ 16.8 µM)
Ralstonia solanacearum [22]
  Ratio: 2

## COc1ccc2[nH]c3c(C=O)nccc3c2c1
Staphylococcus aureus [1]
  MIC: > 64 µg/mL
Bacillus cereus
  MIC: 32 µg/mL (≈ 141 µM)
Bacillus subtilis
  MIC: > 64 µg/mL
Ralstonia solanacearum [3]
  MIC: > 64 µg/mL

## COc1ccc2[nH]c3cnccc3c2c1
Staphylococcus aureus [1]
  MIC: > 64 µg/mL
Staphylococcus aureus [2]
  MIC: > 64 µg/mL
Bacillus cereus
  MIC: > 64 µg/mL
Bacillus subtilis
  MIC: > 64 µg/mL
Ralstonia solanacearum [3]
  MIC: > 64 µg/mL

## O=C1CCCc2cc3ccccc3n21
Staphylococcus aureus [1]
  MIC: > 64 µg/mL
Bacillus cereus
  MIC: > 64 µg/mL
Bacillus subtilis
  MIC: > 64 µg/mL
Ralstonia solanacearum [3]
  MIC: > 64 µg/mL

## O=C1CCC(=O)n2ccc3cccc1c32
Staphylococcus aureus [1]
  MIC: > 64 µg/mL
Bacillus cereus
  MIC: > 64 µg/mL
Bacillus subtilis
  MIC: > 64 µg/mL
Ralstonia solanacearum [3]
  MIC: > 64 µg/mL

## COc1ccc2c(c1)c1ccnc3c1n2CN(Cc1ccccc1)C3
Staphylococcus aureus [1]
  MIC: > 64 µg/mL
Bacillus cereus
  MIC: 64 µg/mL (≈ 194 µM)
Bacillus subtilis
  MIC: 64 µg/mL (≈ 194 µM)
Ralstonia solanacearum [3]
  MIC: > 64 µg/mL

## C[C@@H]1O[C@@H]1P(=O)([O-])[O-].[Na+].[Na+] [PHOSPHOMYCIN DISODIUM]
Staphylococcus aureus [1]
  MIC: 16 µg/mL
Staphylococcus aureus [2]
  MIC: 8 µg/mL
Bacillus cereus
  MIC: 4 µg/mL
Bacillus subtilis
  MIC: 2 µg/mL
Ralstonia solanacearum [3]
  MIC: 8 µg/mL

## COc1ccc2c(c1)c1c3n2C(=O)CCC3NCC1 (centres undefined)
Staphylococcus aureus [1]
  MIC: > 64 µg/mL
Bacillus cereus
  MIC: > 64 µg/mL
Bacillus subtilis
  MIC: > 64 µg/mL
Ralstonia solanacearum [3]
  MIC: > 64 µg/mL

## O=C(O)CNCP(=O)(O)O [GLYPHOSATE]
Radish
  Activity: 78%
Triticum aestivum
  Activity: 75%

## O=C1CCC2(SCCS2)c2cc3ccccc3n21
Staphylococcus aureus [1]
  MIC: 32 µg/mL (≈ 116 µM)
Staphylococcus aureus [2]
  MIC: > 64 µg/mL
Bacillus cereus
  MIC: > 64 µg/mL
Bacillus subtilis
  MIC: > 64 µg/mL
Ralstonia solanacearum [3]
  MIC: > 64 µg/mL

## CO/N=C(\C(=O)N[C@@H]1C(=O)N2C(C(=O)[O-])=C(COC(C)=O)CS[C@H]12)c1csc(N)n1.[Na+] [CEFOTAXIME SODIUM]
Staphylococcus aureus [1]
  MIC: 1 µg/mL
Staphylococcus aureus [2]
  MIC: 16 µg/mL
Bacillus cereus
  MIC: 16 µg/mL
Bacillus subtilis
  MIC: 2 µg/mL
Ralstonia solanacearum [3]
  MIC: 2 µg/mL

## O=C1CCCC2Cc3ccccc3N12 (centres undefined)
Staphylococcus aureus [1]
  MIC: > 64 µg/mL
Bacillus cereus
  MIC: > 64 µg/mL
Bacillus subtilis
  MIC: > 64 µg/mL
Ralstonia solanacearum [3]
  MIC: > 64 µg/mL

## O=c1ccc2nccc3c4cc(OCc5cn(Cc6ccccc6)nn5)ccc4n1c23
Bacillus cereus
  MIC: > 64 µg/mL
Bacillus subtilis
  MIC: > 64 µg/mL

## C#CCOc1ccc2c(c1)c1ccnc3ccc(=O)n2c31
Staphylococcus aureus [1]
  MIC: 64 µg/mL (≈ 233 µM)
Staphylococcus aureus [2]
  MIC: > 64 µg/mL
Bacillus cereus
  MIC: 8 µg/mL (≈ 29.2 µM)
Bacillus subtilis
  MIC: > 64 µg/mL
Ralstonia solanacearum [3]
  MIC: 8 µg/mL (≈ 29.2 µM)
